Results taken from US20220389477A1, “METHOD FOR EVALUATING ANTIBIOTIC SUSCEPTIBILITY” (Vrije Universiteit Brussel, priority 2019, published 2022).
In brackets after ≈: the same amount, converted by molar mass.

Key:
Assay type in all cases: cell-based
[1] = test system: Klebsiella pneumonia culture; assay: Optical third-derivative MIC method, culture in broth; details: for MIC: Klebsiella pneumoniae
Excerpt: (§1) The method of FIG. 1 starts at a time equal to zero, t0 (1). Preferably, said t0 is the moment a pure bacteria culture is finished being prepared. Alternatively, said t0 is the moment all wells contain both said bacteria culture and said antimicrobial drug. After the starting of the experiment each well is periodically illuminated with a light source and the intensity of the transmitted light is detected with a photodetector (2). Preferably, each well is illuminated and the intensity of the transmitted light is detected every hour (2). More preferably, each well is illuminated and the intensity of the transmitted light is detected every 5 to 15 min. After a predetermined time length, preferably after 4 hours, a first, a second and a third derivative of said measured intensity is calculated (3) in a first and a second time frame for each well. Preferably, said second time frame is the last measured time frame after the test has been running for said predetermined time length, and said first time frame is the time frame preceding the second time frame. More preferably, said first time frame is between two and three hours and said second time frame is between three and four hours. After the calculation of said derivatives, said first derivative in said second time frame of said reference well is compared to a growth speed threshold value (4). Preferably, said growth speed threshold value is 0.166 (4). If said first derivative in said second time frame of said reference well is larger than or equal to said growth speed threshold value said bacteria culture is classified as Type I (4). If said first derivative in said second time frame of said reference well is smaller than said growth speed threshold value said bacteria culture is classified as Type II (4). Subsequently, independent of the classification of the bacteria culture according to the two types, the method comprises the following steps which are performed for each well or for all wells except said reference well. Both said first and said second time frames are evaluated to see if there is an inflection point present in the second derivative in said first and/or said second time frame (5).
(§2) If said first and/or said second time frame comprise said inflection point than said third derivative in said first time frame is compared to said third derivative in said second time frame (6). If said third derivative in said first time frame is larger than said third derivative in said second time frame, then said first time frame and said second time frame are selected as a first and second time frame to be used in a minimal inhibitory concentration determination method (10). If said third derivative in said first time frame is not larger than said third derivative in said second time frame, then said well is illuminated again after a certain time period, preferably an hour, more preferably 5 to 15 min after said predetermined time length said, with a light source and the intensity of the transmitted light is detected with a photodetector forming a new time frame subsequent to said second time frame (7). A third derivative, and possibly also a first and/or a second derivative, is calculated in said new time frame (7). Further, in step (7) a new first time frame is put equal to said second time frame and a new second time frame to equal to said new time frame. Subsequently, said third derivative in said new first time frame is compared to said third derivative in said new second time frame (8). If said derivative in said new first time frame is larger than said third derivative in said new second time frame, then said new first time frame and said new second time frame are selected as a first and second time frame to be used in a minimal inhibitory concentration determination method (10). […]

Acinetobacter Species [2] = assay: as above; details: AC/2990; for MIC: Acinetobacter
Excerpt: as §1, §2

Acinetobacter Species [3] = assay: Broth microdilution (BMD); details: culture AC/2990
[4] = test system: Klebsiella pneumonia culture; assay: E-test; details: Klebsiella pneumoniae
[5] = test system: Klebsiella pneumonia culture; assay: Broth microdilution (BMD); details: Klebsiella pneumoniae
Acinetobacter Species [6] = assay: E-test; details: culture AC/2990

## C[C@@H](O)[C@H]1C(=O)N2C(C(=O)O)=C(SCCN=CN)C[C@H]12 [imipenem]
[1]; KP/38.3002, FIG. 5H repetition, Table 10, 3 h-4 h, read-out: MIC (40%) T1
  MIC: 0.5 µg/mL (≈ 1.67 µM)
[1]; KP/38.3002, FIG. 5H repetition, Table 10, 3 h-4 h, read-out: MIC (60%) T1
  MIC: 0.5 µg/mL (≈ 1.67 µM)
[1]; KP/38.3002, FIG. 5H repetition, Table 10, 3 h-4 h, read-out: MIC (75%) T1
  MIC: 0.5 µg/mL (≈ 1.67 µM)
[1]; KP/38.3002, FIG. 5H repetition, Table 10, 4 h-5 h, read-out: MIC (25%) T2
  MIC: 16 µg/mL (≈ 53.4 µM)
[1]; KP/38.3002, FIG. 5H repetition, Table 10, 4 h-5 h, read-out: MIC (40%) T2
  MIC: 16 µg/mL (≈ 53.4 µM)
[1]; KP/38.3002, FIG. 5H repetition, Table 10, 4 h-5 h, read-out: MIC (60%) T2
  MIC: 16 µg/mL (≈ 53.4 µM)
[1]; KP/38.3002, FIG. 5H repetition, Table 10, 4 h-5 h, read-out: MIC (75%) T2
  MIC: 8 µg/mL (≈ 26.7 µM)
[1]; KP/38.3002, FIG. 5H repetition, Table 11, 3 h-4 h, read-out: MIC (25%) T1
  MIC: 16 µg/mL (≈ 53.4 µM)
[1]; KP/38.3002, FIG. 5H repetition, Table 11, 3 h-4 h, read-out: MIC (40%) T1
  MIC: 0.25 µg/mL (≈ 0.835 µM)
[1]; KP/38.3002, FIG. 5H repetition, Table 11, 3 h-4 h, read-out: MIC (60%) T1
  MIC: 0.25 µg/mL (≈ 0.835 µM)
[1]; KP/38.3002, FIG. 5H repetition, Table 11, 3 h-4 h, read-out: MIC (75%) T1
  MIC: 0.25 µg/mL (≈ 0.835 µM)
[1]; KP/38.3002, FIG. 5H repetition, Table 11, 4 h-5 h, read-out: MIC (25%) T2
  MIC: 16 µg/mL (≈ 53.4 µM)
[1]; KP/38.3002, FIG. 5H repetition, Table 11, 4 h-5 h, read-out: MIC (40%) T2
  MIC: 8 µg/mL (≈ 26.7 µM)
[1]; KP/38.3002, FIG. 5H repetition, Table 11, 4 h-5 h, read-out: MIC (60%) T2
  MIC: 8 µg/mL (≈ 26.7 µM)
[1]; KP/38.3002, FIG. 5H repetition, Table 11, 4 h-5 h, read-out: MIC (75%) T2
  MIC: 8 µg/mL (≈ 26.7 µM)
[1]; KP/153.4346, FIG. 5G, overall conclusion, read-out: MIC value determined by the method
  MIC: > 256 µg/mL
[1]; MP/072.3489, FIG. 5B, overall conclusion, read-out: MIC value determined by the method
  MIC: 16 µg/mL (≈ 53.4 µM)
[1]; MP/072.3489, ratio MIC T2/T1
  HR? at MIC (25%): yes (If the ratio of the MIC value in the second time frame over the MIC value in the first time frame is higher than or equal to 8 then the ratio is labelled to be heteroresistant)
  HR? at MIC (40%): yes (If the ratio of the MIC value in the second time frame over the MIC value in the first time frame is higher than or equal to 8 then the ratio is labelled to be heteroresistant)
  HR? at MIC (60%): yes (If the ratio of the MIC value in the second time frame over the MIC value in the first time frame is higher than or equal to 8 then the ratio is labelled to be heteroresistant)
  HR? at MIC (75%): yes (If the ratio of the MIC value in the second time frame over the MIC value in the first time frame is higher than or equal to 8 then the ratio is labelled to be heteroresistant)
Acinetobacter Species [2]; ratio MIC T2/T1
  HR? at MIC (40%): no (If the ratio of the MIC value in the second time frame over the MIC value in the first time frame is lower than or equal to 4 then the ratio is labelled not to be heteroresistant)
  HR? at MIC (60%): no (If the ratio of the MIC value in the second time frame over the MIC value in the first time frame is lower than or equal to 4 then the ratio is labelled not to be heteroresistant)
  HR? at MIC (75%): no (If the ratio of the MIC value in the second time frame over the MIC value in the first time frame is lower than or equal to 4 then the ratio is labelled not to be heteroresistant)
Acinetobacter Species [2]; ratio MIC T2/T1, omitted (Type II)
  HR? at MIC (25%): yes (If the ratio of the MIC value in the second time frame over the MIC value in the first time frame is higher than or equal to 8 then the ratio is labelled to be heteroresistant)
Acinetobacter Species [2]; 2 h-3 h, omitted from determination (Type II), read-out: MIC (25%) T1
  MIC: 0.25 µg/mL (≈ 0.835 µM)
Acinetobacter Species [2]; 2 h-3 h, read-out: MIC (40%) T1
  MIC: 0.25 µg/mL (≈ 0.835 µM)
Acinetobacter Species [2]; 2 h-3 h, read-out: MIC (60%) T1
  MIC: < 0.125 µg/mL
Acinetobacter Species [2]; 2 h-3 h, read-out: MIC (75%) T1
  MIC: < 0.125 µg/mL
Acinetobacter Species [2]; 3 h-4 h, omitted from determination (Type II), read-out: MIC (25%) T2
  MIC: 128 µg/mL (≈ 428 µM)
Acinetobacter Species [2]; 3 h-4 h, read-out: MIC (40%) T2
  MIC: 0.25 µg/mL (≈ 0.835 µM)
Acinetobacter Species [2]; 3 h-4 h, read-out: MIC (60%) T2
  MIC: < 0.125 µg/mL
Acinetobacter Species [2]; 3 h-4 h, read-out: MIC (75%) T2
  MIC: < 0.125 µg/mL
Acinetobacter Species [2]; FIG. 5A, overall conclusion, read-out: MIC value determined by the method
  MIC: 0.25 µg/mL (≈ 0.835 µM)
Acinetobacter Species [3]
  MIC: 0.25 µg/mL (≈ 0.835 µM)
[4]; culture KP/38.3002
  MIC: 16 µg/mL (≈ 53.4 µM)
[4]; culture KP/153.4346
  MIC: > 32 µg/mL
[4]; culture MP/072.3489
  MIC: 16 µg/mL (≈ 53.4 µM)
[5]; culture KP/38.3002
  MIC: 16 µg/mL (≈ 53.4 µM)
[5]; culture KP/153.4346
  MIC: 16 µg/mL (≈ 53.4 µM)
[5]; culture MP/072.3489
  MIC: 32 µg/mL (≈ 107 µM)
Acinetobacter Species [6]
  MIC: 0.25 µg/mL (≈ 0.835 µM)
